Results from patent US7803831B2, “3-(2-hydroxy-phenyl)-1H-pyrazole-4-carboxylic acid amide derivatives as HSP90 inhibitors for the treatment of cancer” (Vernalis (Cambridge) Limited, priority 2002, dated 2010).

Target: T1, yeast HSP90 (Saccharomyces cerevisiae, UniProt P02829)
T1 construct: made in house; host or cells: E. coli
Test: Malachite green ATPase assay
Type: biochemical
Details: activity range
Excerpt: The intrinsic ATPase activity of HSP90 may be measured using yeast HSP90 as a model system. The assay, based on the use of malachite green for the measurement of inorganic phosphate, was used to test the HSP90 inhibitory activity of the compounds of the Examples herein.
Malachite Green ATPase Assay
Chemicals are of the highest purity commercially available and all aqueous solutions are made up in AR water. Because of the need to minimise contamination with inorganic phosphate, precautions should be taken with solutions and apparatus used in the assays. Glassware and pH meters are rinsed with double distilled or deionised water before use and, wherever possible, plastic ware should be used. Gloves are worn for all procedures. • (1) Greiner 384-well (Greiner 781101) or Costar 384-well flat-bottomed polystyrene multiwell plates (VWR). • (2) Assay buffer of (a) 100 mM Tris-HCl, pH 7.4, (b) 150 mM KCI, (c) 6 mM MgCl2. Stored at room temperature. • (3) 0.0812% (w/v) malachite green (M 9636, Sigma Aldrich Ltd., Poole, UK). Stored at room temperature. • (4) 2.32% (w/v) polyvinyl alcohol USP (P 1097, Sigma Aldrich Ltd, Poole, UK) in boiling water (see Comment 1), allowed to cool, and stored at room temperature. • (5) 5.72% (w/v) ammonium molybdate in 6 M hydrochloric acid. Stored at room temperature. • (6) 34% (w/v) sodium citrate. Stored at room temperature. • (7) 100 mM ATP, disodium salt, special quality (47699, Sigma Aldrich). Stored at −20° C. • (8) E. coli expressed yeast HSP90 protein, purified >95% (see, e.g., Panaretou et al., 1998) and stored in 50 uL aliquots at −80° C. Method • 1. Dilute test compounds to 500 μM in AR water (DMSO concentration will be 2.5%). Transfer 2.5 μl of these compounds directly from the daughter plate to the assay plate, giving a final assay concentration of 100 μM. To obtain 12 point IC50 values, perform serial dilutions 1:2 to produce a range of assay concentrations from 100 μM to 97.6 nM (2.5% DMSO), and transfer 2.5 μl of each concentration into the assay plate. Column 1 in the assay plate contains no compound, as a negative control. An additional row with no compound is also used as a background. • 2. Prepare ATP by diluting 100 mM stock to 925 μM with assay buffer, and aliquot 5 μl of diluted ATP to each well including controls (final assay concentration 370 μM). • 3. Add 5 μl of buffer to background row. • 4. Dilute enzyme preparation to 1.05 μM with assay buffer, and aliquot 5 μl into each compound well and to the negative control column. • 5. Collect the reagents to the bottom of the well, cover plate with plate seal and incubate overnight at 37 degC. • 6. First thing in the morning prepare the Malachite Green Reagent. Add 2 parts of Malachite Green Solution, 1 part of Polyvinyl Alcohol Solution, 1 part of Ammonium Molybdate Solution, and 2 parts of AR water. • 7. Invert to mix, and leave for approximately 1 hour until the colour turns from brown to golden yellow. • 8. Add 40 μl of Malachite Green Reagent to each well, allow 5 mins for colour to develop. • 9. Add 5 μl of Sodium Citrate Reagent to each well (see comment 2) • 10. Re-cover with plate seal and shake on plate shaker for at least 15 mins. • 11. Measure Absorbance at 620 nm using a suitable plate reader (e.g. Victor, Perkin Elmer Life Sciences, Milton Keynes, UK). […] Comments • (1) The polyvinyl alcohol dissolves in boiling water with difficulty and stirring for 2-3 h is required. • (2) The time interval between addition of the malachite green reagent and the sodium citrate should be kept as short as possible in order to reduce the non-enzymatic hydrolysis of ATP. Once the sodium citrate is added, the colour is stable for up to 4 h at room temperature. • (3) Compounds can be added to the assay plates using a Biomek FX Robot (Beckman Coulter).

T1 sequence (P02829 whole entry, looked up): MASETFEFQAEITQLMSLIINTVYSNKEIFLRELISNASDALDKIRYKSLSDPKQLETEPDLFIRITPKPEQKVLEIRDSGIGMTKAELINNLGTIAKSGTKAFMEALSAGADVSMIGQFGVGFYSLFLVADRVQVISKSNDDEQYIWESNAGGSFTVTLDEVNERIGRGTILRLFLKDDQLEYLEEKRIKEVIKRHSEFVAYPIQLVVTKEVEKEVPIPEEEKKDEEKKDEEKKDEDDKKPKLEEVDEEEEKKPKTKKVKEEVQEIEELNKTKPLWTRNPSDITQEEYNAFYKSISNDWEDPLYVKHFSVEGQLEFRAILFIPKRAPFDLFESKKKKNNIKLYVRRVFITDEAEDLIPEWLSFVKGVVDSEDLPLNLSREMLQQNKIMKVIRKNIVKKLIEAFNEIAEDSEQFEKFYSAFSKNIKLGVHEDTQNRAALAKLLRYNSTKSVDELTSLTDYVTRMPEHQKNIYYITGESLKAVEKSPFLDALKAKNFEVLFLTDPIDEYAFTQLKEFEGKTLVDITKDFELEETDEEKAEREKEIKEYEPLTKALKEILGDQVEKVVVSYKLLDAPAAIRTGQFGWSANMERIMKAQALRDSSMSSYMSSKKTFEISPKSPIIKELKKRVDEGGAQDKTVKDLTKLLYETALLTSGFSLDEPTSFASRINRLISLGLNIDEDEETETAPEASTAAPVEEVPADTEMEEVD

SMILES	IC50 [µM]
O=C(Nc1ccccc1)c1c[nH]nc1-c1cc(Cl)c(O)cc1O [Example 2]	> 50
O=C(c1c[nH]nc1-c1cc(Cl)c(O)cc1O)N1CCN(c2ccccc2)CC1 [Example 3]	> 50
C=CCNC(=O)c1c[nH]nc1-c1cc(Cl)c(O)cc1O [Example 4]	> 50
O=C(c1c[nH]nc1-c1cc(Cl)c(O)cc1O)N1CCOCC1 [Example 5]	> 50
CN1CCN(C(=O)c2c[nH]nc2-c2cc(Cl)c(O)cc2O)CC1 [Example 6]	> 50
O=C(NCCCN1CCOCC1)c1c[nH]nc1-c1cc(Cl)c(O)cc1O [Example 7]	> 50
O=C(Nc1ccccn1)c1c[nH]nc1-c1cc(Cl)c(O)cc1O [Example 8]	> 50
O=C(NCc1ccco1)c1c[nH]nc1-c1cc(Cl)c(O)cc1O [Example 9]	< 50
O=C(NCCc1cccs1)c1c[nH]nc1-c1cc(Cl)c(O)cc1O [Example 10]	< 50
O=C(NCCN1CCOCC1)c1c[nH]nc1-c1cc(Cl)c(O)cc1O [Example 11]	> 50
O=C(NCCCO)c1c[nH]nc1-c1cc(Cl)c(O)cc1O [Example 12]	> 50
O=C(Nc1ccc(O)cc1)c1c[nH]nc1-c1cc(Cl)c(O)cc1O [Example 13]	< 50
COc1cccc(NC(=O)c2c[nH]nc2-c2cc(Cl)c(O)cc2O)c1 [Example 14]	< 50
O=C(Nc1ccc2c(c1)OCCO2)c1c[nH]nc1-c1cc(Cl)c(O)cc1O [Example 15]	< 50
O=C(Nc1ccc(O)c(O)c1)c1c[nH]nc1-c1cc(Cl)c(O)cc1O [Example 16]	> 50
COc1ccc(NC(=O)c2c[nH]nc2-c2cc(Cl)c(O)cc2O)cc1 [Example 17]	< 50
O=C(Nc1ccc(Cl)cc1)c1c[nH]nc1-c1cc(Cl)c(O)cc1O [Example 18]	> 50
CC(=O)Nc1ccc(NC(=O)c2c[nH]nc2-c2cc(Cl)c(O)cc2O)cc1 [Example 19]	> 50
COC(=O)c1ccc(NC(=O)c2c[nH]nc2-c2cc(Cl)c(O)cc2O)cc1 [Example 20]	< 50
NC(=O)c1ccc(NC(=O)c2c[nH]nc2-c2cc(Cl)c(O)cc2O)cc1 [Example 22]	< 50
O=C(NCc1ccccc1)c1c[nH]nc1-c1cc(Cl)c(O)cc1O [Example 23]	> 50

More lines, now with the values ahead:

IC50 [µM]	SMILES
> 50	O=C(O)Cc1ccc(NC(=O)c2c[nH]nc2-c2cc(Cl)c(O)cc2O)cc1 [Example 24]
> 50	COc1ccc(N(C)C(=O)c2c[nH]nc2-c2cc(Cl)c(O)cc2O)cc1 [Example 25]
< 50	O=C(O)c1ccc(CNC(=O)c2c[nH]nc2-c2cc(Cl)c(O)cc2O)cc1 [Example 26]
< 50	Cc1ccc(CNC(=O)c2c[nH]nc2-c2cc(Cl)c(O)cc2O)cc1 [Example 27]
< 50	COc1ccc(CNC(=O)c2c[nH]nc2-c2cc(Cl)c(O)cc2O)cc1 [Example 28]
< 50	O=C(NCc1ccc(F)cc1)c1c[nH]nc1-c1cc(Cl)c(O)cc1O [Example 29]
< 50	O=C(NCc1ccc(Cl)cc1)c1c[nH]nc1-c1cc(Cl)c(O)cc1O [Example 30]
< 50	COc1cccc(CNC(=O)c2c[nH]nc2-c2cc(Cl)c(O)cc2O)c1 [Example 31]
< 50	O=C(NCc1cccc(C(F)(F)F)c1)c1c[nH]nc1-c1cc(Cl)c(O)cc1O [Example 32]
< 50	CS(=O)(=O)c1ccc(CNC(=O)c2c[nH]nc2-c2cc(Cl)c(O)cc2O)cc1 [Example 33]

Test system: not listed separately
Test: Sulforhodamine B (SRB) growth inhibition / cytotoxicity assay
Type: cell-based
Details: SRB growth arrest assay; cell line not stated
Experimental: A growth inhibition assay was also employed for the evaluation of candidate HSP90 inhibitors:
• 1) Determine cell number by haemocytometer. • 2) Using an 8 channel multipipettor, add 160 μl of the cell suspension (3600 cells/well or 2×10^4 cells/ml) to each well of a 96-well microtitre plate. • 3) Incubate overnight at 37° C. in a CO2 incubator. Day 2 • 4) Stock solutions of drugs are prepared, and serial dilutions of each drug are performed in medium to give final concentrations in wells. • 5) Using a multipipettor, 40 μl of drug (at 5× final concentration) is added to quadruplicate wells. • 6) Control wells are at either side of the 96 well plates, where 40 μl of medium is added. • 7) Incubate plates in CO2 incubator for 4 days (48 hours). Day 6 • 8) Tip off medium into sink and immerse plate slowly into 10% ice cold trichloroacetic acid (TCA). […] Leave for 15 mins. • 12) Wash off unbound SRB stain with four washes of 1% acetic acid. • 13) Dry plates in incubator. • 14) Solubilise SRB using 100 μl of 10 mM Tris base and put plates on plate shaker for 5 mins. • 15) Determine absorbance at 540 nm using a plate reader. Calculate mean absorbance for quadruplicate wells and express as a percentage of value for control, untreated wells. • 16) Plot % absorbance values versus log drug concentration and determine the IC50.

SMILES	IC50 [µM]
CC(=O)c1ccc(NC(=O)c2c[nH]nc2-c2cc(Cl)c(O)cc2O)cc1 [Example 1, 3-(5-chloro-2,4-dihydroxy-phenyl)-1H-pyrazole-4-carboxylic acid (4-acetyl-phenyl)-amide]	> 50
